Drawing on patent publication US11401286B2 (Tetra Discovery Partners, LLC, priority 2012, dated 2022), this text covers IC50 for 37 compounds.

Where a name gives a salt, the structure may show the parent alone.

The target in one assay is PDE4D7 (Homo sapiens (Human), UniProt Q08499).
Chain of PDE4D7 (Q08499 other isoform, or with tags, fused parts or gaps): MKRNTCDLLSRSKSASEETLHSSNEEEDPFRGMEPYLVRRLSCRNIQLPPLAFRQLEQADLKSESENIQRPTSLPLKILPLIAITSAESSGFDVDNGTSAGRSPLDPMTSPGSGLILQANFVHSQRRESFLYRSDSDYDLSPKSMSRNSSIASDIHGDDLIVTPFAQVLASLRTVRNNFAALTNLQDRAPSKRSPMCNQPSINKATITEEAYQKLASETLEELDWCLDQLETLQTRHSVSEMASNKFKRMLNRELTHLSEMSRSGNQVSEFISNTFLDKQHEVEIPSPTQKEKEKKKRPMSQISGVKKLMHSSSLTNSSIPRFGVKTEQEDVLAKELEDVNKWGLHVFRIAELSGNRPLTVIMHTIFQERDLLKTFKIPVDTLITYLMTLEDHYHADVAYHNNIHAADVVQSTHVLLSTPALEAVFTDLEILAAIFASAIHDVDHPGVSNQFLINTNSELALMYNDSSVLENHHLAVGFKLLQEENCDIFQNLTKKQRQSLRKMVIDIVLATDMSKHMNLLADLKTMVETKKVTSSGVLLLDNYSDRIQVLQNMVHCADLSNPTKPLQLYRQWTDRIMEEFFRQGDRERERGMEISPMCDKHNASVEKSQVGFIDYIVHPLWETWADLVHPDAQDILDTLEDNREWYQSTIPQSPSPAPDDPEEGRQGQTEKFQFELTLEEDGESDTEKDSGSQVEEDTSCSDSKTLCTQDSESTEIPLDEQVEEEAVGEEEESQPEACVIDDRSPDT
Conditions: not given
With `CN(c1ccc(CC(N)=O)cc1)c1cc(-c2cccc(Cl)c2)nc2c1CCC2` [Example 118, 2-(4-((2-(3-Chlorophenyl)-6,7-dihydro-5H-cyclopenta[b]pyridin-4-yl)(methyl)amino)phenyl)acetamide], the IC50 was above 1000 nM.

Still in this assay, the particulars now being: read-out: PDE4D7 IC50.
Regarding `OCCc1ccc(Nc2cc(-c3cccc(Cl)c3)nc3c2CCC3)nc1` [Example 92, 2-(6-((2-(3-Chlorophenyl)-6,7-dihydro-5H-cyclopenta[b]pyridin-4-yl)amino)pyridin-3-yl)ethanol hydrochloride], the IC50 is above 1000 nM.
Still for that read-out and setting: for `C[C@@H]1CN(c2cc(Nc3ccc(CC(N)=O)cc3)c3c(n2)CCC3)CCN1` [Example 255, (R)-2-(4-((2-(3-Methylpiperazin-1-yl)-6,7-dihydro-5H-cyclopenta[b]pyridin-4-yl)amino)phenyl)acetamide hydrochloride] the value was above 1000 nM.

Staying with this assay, now noted: read-out: PDE4D7 IC50; PDE4D7 without asterisk.
Turning to `Cc1cc(Nc2nc(-c3cccc(Cl)c3)nc3c2CCC3)ccc1CC#N` [Example 177, 2-(4-((2-(3-Chlorophenyl)-6,7-dihydro-5H-cyclopenta[d]pyrimidin-4-yl)amino)-2-methylphenyl)acetonitrile], the IC50 was above 1000 nM.
Still for that read-out and setting: for `N#CNC(=O)Cc1ccc(Nc2nc(-c3cccc(Cl)c3)nc3c2S(=O)(=O)CCC3)cc1` [Example 315, 2-[4-[[2-(3-Chlorophenyl)-5,5-dioxo-7,8-dihydro-6H-thiopyrano[3,2-d]pyrimidin-4-yl]amino]phenyl]-N-cyano-acetamide] the value was below 1000 nM.
The same measure, in the same setting: to `O=C(O)CCc1ccc(Nc2nc(-c3cccc(Cl)c3)nc3c2CCC3)cc1` [Example 16, 3-[4-[[2-(3-Chlorophenyl)-6,7-dihydro-5H-cyclopenta[d]pyrimidin-4-yl]amino]phenyl]propanoic acid] belongs above 1000 nM.
Regarding `O=C(O)Cc1ccc(Oc2nc(-c3cccc(Cl)c3)nc(C3CC3)n2)cc1` [Example 43, 2-(4-((4-(3-chlorophenyl)-6-cyclopropyl-1,3,5-triazin-2-yl)oxy)phenyl)acetic acid], the IC50 is above 1000 nM.
With `Cc1nc(Nc2ccc(F)cc2)nc(-c2ccc(Cl)s2)n1` [Example 23, 4-(5-chlorothiophen-2-yl)-N-(4-fluorophenyl)-6-methyl-1,3,5-triazin-2-amine], the IC50 is above 1000 nM.
On the same count and under the same terms, to `CCc1c(C)nc(-c2ccc(Cl)s2)nc1Nc1ccc(Cn2cc(Cl)cn2)cc1` [Example 304, N-[4-[(4-Chloropyrazol-1-yl)methyl]phenyl]-2-(5-chloro-2-thienyl)-5-ethyl-6-methyl-pyrimidin-4-amine] belongs above 1000 nM; to `Cc1nc(Nc2ccc(C(=O)O)cc2)nc(-c2ccc(Cl)s2)n1` [Example 31, 4-(4-(5-chlorothiophen-2-yl)-6-methyl-1,3,5-triazin-2-ylamino)benzoic acid], above 1000 nM.
Same read-out and setting: to `NC(=O)Cc1ccc(Nc2nc(C3CCCC3)nc3c2S(=O)(=O)CCC3)cc1` [Example 286, 2-(4-((2-cyclopentyl-5,5-dioxido-7,8-dihydro-6H-thiopyrano[3,2-d]pyrimidin-4-yl)amino)phenyl)acetamide] belongs below 1000 nM; to `NC(=O)Cc1ccc(Nc2nc(-c3cccc(Cl)c3)nc3c2SCC3)cc1` [Example 280, 2-(4-((2-(3-chlorophenyl)-6,7-dihydrothieno[3,2-d]pyrimidin-4-yl)amino)phenyl)acetamide], below 1000 nM.
On the same count and under the same terms, for `Clc1ccc(-c2nc(Nc3ccc(Cc4nnn[nH]4)cc3)cc(C3CC3)n2)s1` [Example 298, 2-(5-Chloro-2-thienyl)-6-cyclopropyl-N-[4-(1H-tetrazol-5-ylmethyl)phenyl]pyrimidin-4-amine] the value was above 1000 nM; for `CCc1c(C)nc(-c2ccc(Cl)s2)nc1Nc1ccc(Cc2nc(C(=O)O)c[nH]2)cc1` [Example 306, 2-[[4-[[2-(5-Chloro-2-thienyl)-5-ethyl-6-methyl-pyrimidin-4-yl]amino]phenyl]methyl]-1H-imidazole-4-carboxylic acid], above 1000 nM; for `NC(=O)Cc1ccc(Nc2cc(-c3cccc(Cl)c3)nc3c2CCC3)cc1F` [Example 112, 2-(4-((2-(3-Chlorophenyl)-6,7-dihydro-5H-cyclopenta[b]pyridin-4-yl)amino)-2-fluorophenyl)acetamide hydrochloride], above 1000 nM.
In the case of `OCCc1ccc(Nc2cc(-c3cc(Cl)cc(Cl)c3)nc3c2CCC3)cc1` [Example 158, 2-(4-((2-(3,5-Dichlorophenyl)-6,7-dihydro-5H-cyclopenta[b]pyridin-4-yl)amino)phenyl)ethanol hydrochloride], the IC50 is above 1000 nM.
Still for that read-out and setting: for `NC(=O)Cc1ccc(Nc2cc(-c3cccc(Cl)c3)nc(C3CC3)c2)cc1` [Example 139, 2-(4-((2-(3-Chlorophenyl)-6-cyclopropylpyridin-4-yl)amino)phenyl)acetamide hydrochloride] the value was below 1000 nM; for `CCc1cc(Nc2ccc(Cn3cccn3)cc2)nc(-c2cccc(Cl)c2)n1` [Example 189, N-(4-((1H-Pyrazol-1-yl)methyl)phenyl)-2-(3-chlorophenyl)-6-ethylpyrimidin-4-amine], below 1000 nM; for `O=C(O)Cc1ccc(Cc2cc(C(F)(F)F)nc(C3CCCC3)n2)cc1` [Example 229, 2-(4-((2-Cyclopentyl-6-(trifluoromethyl)pyrimidin-4-yl)methyl)phenyl)acetic acid], above 1000 nM.
For the compound `Clc1cccc(-c2cc(Nc3ccc(Cc4ncco4)cc3)c3c(n2)CCC3)c1` [Example 114, 2-(3-Chlorophenyl)-N-(4-(oxazol-2-ylmethyl)phenyl)-6,7-dihydro-5H-cyclopenta[b]pyridin-4-amine hydrochloride], the IC50 was above 1000 nM.
On the same count and under the same terms, to `O=C(O)CCc1ccc(Nc2nc(-c3ccc(Cl)s3)nc3c2CCC3)cc1` [Example 15, 3-[4-[[2-(5-Chloro-2-thienyl)-6,7-dihydro-5H-cyclopenta[d]pyrimidin-4-yl]amino]phenyl]propanoic acid] belongs above 1000 nM; to `CCc1c(C)nc(-c2ccc(Cl)s2)nc1Nc1ccc(CC(=O)NC)cc1` [Example 308, 2-[4-[[2-(5-Chloro-2-thienyl)-5-ethyl-6-methyl-pyrimidin-4-yl]amino]phenyl]-N-methyl-acetamide], above 1000 nM.
For `Cc1nc(Nc2ccc(CC(=O)O)cc2)nc(-c2ccco2)n1` [Example 24, 2-(4-((4-(furan-2-yl)-6-methyl-1,3,5-triazin-2-yl)amino)phenyl)acetic acid], the IC50 is above 1000 nM.
The same measure, in the same setting: to `Clc1cccc(-c2nc3c(c(Nc4ccc(Cc5ncco5)cc4)n2)CCC3)c1` [Example 179, 2-(3-Chlorophenyl)-N-(4-(oxazol-2-ylmethyl)phenyl)-6,7-dihydro-5H-cyclopenta[d]pyrimidin-4-amine] belongs above 1000 nM; to `OCCc1ccc(Nc2cc(-c3ccco3)nc3c2CCC3)cc1` [Example 239, 2-(4-((2-(furan-2-yl)-6,7-dihydro-5H-cyclopenta[b]pyridin-4-yl)amino)phenyl)ethanol hydrochloride], above 1000 nM; to `CCc1nc(Nc2ccc(CC(N)=O)cc2)nc(-c2cccc(Cl)c2)n1` [Example 57, 2-(4-(4-(3-chlorophenyl)-6-ethyl-1,3,5-triazin-2-ylamino)phenyl)acetamide], below 1000 nM.
The same measure, in the same setting: for `Cc1cc(Nc2cc(-c3cccc(Cl)c3)nc3c2CCC3)ccc1CC(N)=O` [Example 111, 2-(4-((2-(3-Chlorophenyl)-6,7-dihydro-5H-cyclopenta[b]pyridin-4-yl)amino)-2-methylphenyl)acetamide hydrochloride] the value was above 1000 nM; for `NC(=O)Cc1ccc(Cc2nc(-c3cccc(Cl)c3)nc3c2CCC3)cc1` [Example 68, 2-(4-((2-(3-chlorophenyl)-6,7-dihydro-5H-cyclopenta[d]pyrimidin-4-yl)methyl)phenyl)acetamide], above 1000 nM.
The same measure, in the same setting: to `COC(=O)Cc1cccc(Nc2cc(-c3cccc(Cl)c3)nc3c2CCC3)c1` [Example 100, Methyl 2-(3-((2-(3-chlorophenyl)-6,7-dihydro-5H-cyclopenta[b]pyridin-4-yl)amino)phenyl)acetate hydrochloride] belongs above 1000 nM.
For the compound `CC(O)Cc1ccc(Nc2cc(-c3cccc(Cl)c3)nc3c2CCC3)cc1` (stereo not shown) [Example 104, 1-(4-((2-(3-Chlorophenyl)-6,7-dihydro-5H-cyclopenta[b]pyridin-4-yl)amino)phenyl)propan-2-ol], the IC50 was above 1000 nM.
Same read-out and setting: for `OCCc1ccc(Nc2cc(C3CC3)nc(-c3cccc(Cl)c3)n2)cc1` [Example 206, 2-(4-((2-(3-Chlorophenyl)-6-cyclopropylpyrimidin-4-yl)amino)phenyl)ethanol] the value was below 1000 nM; for `OB1OCc2cc(Nc3nc(-c4ccc(Cl)s4)nc4c3CCC4)ccc21` [Example 293, 2-(5-Chloro-2-thienyl)-N-(1-hydroxy-3H-2,1-benzoxaborol-5-yl)-6,7-dihydro-5H-cyclopenta[d]pyrimidin-4-amine], below 1000 nM.
The same measure, in the same setting: for `OCCc1ccc(Nc2nc(-c3cccc(Cl)c3)nc3c2SCCC3)cc1` [Example 272, 2-(4-((2-(3-chlorophenyl)-7,8-dihydro-6H-thiopyrano[3,2-d]pyrimidin-4-yl)amino)phenyl)ethanol] the value was below 1000 nM; for `NC(=O)Cc1ccc(Nc2cc(-c3cccc(Cl)c3)nc3c2CCC3)nc1` [Example 94, 2-(6-((2-(3-Chlorophenyl)-6,7-dihydro-5H-cyclopenta[b]pyridin-4-yl)amino)pyridin-3-yl)acetamide hydrochloride], above 1000 nM.
As to `CCc1nc(Nc2ccc(CCOC)cc2)nc(-c2cccc(Cl)c2)n1` [Example 82, 4-(3-Chlorophenyl)-6-ethyl-N-(4-(2-methoxyethyl)phenyl)-1,3,5-triazin-2-amine], the IC50 was below 1000 nM.
On the same count and under the same terms, for `O=C(O)Cc1ccc(Nc2cc(C3CCCC3)nc(C(F)(F)F)c2)cc1` [Example 161, 2-(4-((2-Cyclopentyl-6-(trifluoromethyl)pyridin-4-yl)amino)phenyl)acetic acid] the value was above 1000 nM.
Still for that read-out and setting: for `O=S1(=O)CCCc2nc(-c3ccccc3)nc(Nc3ccc(CCO)cc3)c21` [Example 268, 4-((4-(2-hydroxyethyl)phenyl)amino)-2-phenyl-7,8-dihydro-6H-thiopyrano[3,2-d]pyrimidine 5,5-dioxide] the value was below 1000 nM.

For orientation: IC50 means the concentration that gives 50% inhibition.
